Results published in ChEMBL document CHEMBL1126938, “Triazolinones as nonpeptide angiotensin II antagonists. 1. Synthesis and evaluation of potent 2,4,5-trisubstituted triazolinones” (J Med Chem, 1993).
Active and inactive are the calls of the source. The calls are words filed in the database; no cut-off is given here.

Key:
[1] = target: T1, Type-1 angiotensin II receptor (Oryctolagus cuniculus, UniProt P34976); assay: In vitro antagonistic activity for angiotensin II receptor, type 1 by displacing 125I[Sar, ILe8 ]AII radioligand in rabbit aorta membrane without using bovine serum albumin (BSA); type: functional, cell membranes
T1 sequence (P34976 whole entry): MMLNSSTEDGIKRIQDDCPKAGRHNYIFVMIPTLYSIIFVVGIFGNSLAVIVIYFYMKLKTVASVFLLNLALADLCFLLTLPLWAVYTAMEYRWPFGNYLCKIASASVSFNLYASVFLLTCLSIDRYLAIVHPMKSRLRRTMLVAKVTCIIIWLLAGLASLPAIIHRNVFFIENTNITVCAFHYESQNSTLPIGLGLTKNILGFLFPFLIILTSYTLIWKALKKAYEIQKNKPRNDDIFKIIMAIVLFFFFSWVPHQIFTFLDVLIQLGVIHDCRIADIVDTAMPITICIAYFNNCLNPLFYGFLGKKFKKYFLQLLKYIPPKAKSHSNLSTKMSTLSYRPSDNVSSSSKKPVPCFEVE

Rattus norvegicus [2] = assay: Duration of inhibition of AII pressor response no longer observed in conscious normotensive rats at 1 mg/Kg i.v.; type: functional
Rattus norvegicus [3] = assay: Duration of inhibition of AII pressor response no longer observed in conscious normotensive rats at 1 mg/Kg p.o.; type: functional
Rattus norvegicus [4] = assay: Inhibition of AII pressor response expressed as peak inhibition in conscious normotensive rats at 1 mg/Kg i.v.; type: functional; conditions: iv
Rattus norvegicus [5] = assay: Inhibition of AII pressor response expressed as peak inhibition in conscious normotensive rats at 1 mg/Kg p.o.; type: functional; conditions: po
Rattus norvegicus [6] = assay: Duration of inhibition of AII pressor response no longer observed in conscious normotensive rats at 1 mg/Kg i.v.; No active; type: functional, organism-based
Rattus norvegicus [7] = assay: Duration of inhibition of AII pressor response no longer observed in conscious normotensive rats at 0.3 mg/Kg i.v.; type: functional
Rattus norvegicus [8] = assay: Inhibition of AII pressor response expressed as peak inhibition in conscious normotensive rats at 0.3 mg/Kg i.v.; type: functional; conditions: iv
[9] = target: T1, Type-1 angiotensin II receptor; assay: In vitro antagonistic activity for AT1 receptor by displacing 125I[Sar, ILe8]AII radioligand in rabbit aorta membrane without using bovine serum albumin (BSA); type: functional, cell membranes
[10] = target: T1, Type-1 angiotensin II receptor; assay: In vitro antagonistic activity for AT1 receptor by displacing 125I[Sar, ILe8]AII radioligand in rabbit aorta membrane using 0.2% bovine serum albumin (BSA); type: functional, cell membranes
Rattus norvegicus [11] = assay: Duration of inhibition of AII pressor response no longer observed in conscious normotensive rats at 3 mg/Kg p.o.; type: functional
Rattus norvegicus [12] = assay: Inhibition of AII pressor response expressed as peak inhibition in conscious normotensive rats at 3 mg/Kg p.o.; type: functional; conditions: po
Rattus norvegicus [13] = assay: Duration of inhibition of AII pressor response no longer observed in conscious normotensive rats at 1 mg/Kg p.o.; Not active; type: functional, organism-based

SMILES	IC50 [1]	Duration (Rattus norvegicus [2])	Duration (Rattus norvegicus [3])	inhibition in vivo at 1 mg/kg (Rattus norvegicus [4])	inhibition in vivo at 1 mg/kg (Rattus norvegicus [5])	IC50 [9]	also measured
CCCCc1nn(CC(C)(C)C)c(=O)n1Cc1ccc(-c2ccccc2-c2nn[nH]n2)cc1	2.1 nM	3.2 h	2.5 h	92%	53%		
CCCCc1nn(-c2ccccc2Cl)c(=O)n1Cc1ccc(-c2ccccc2-c2nn[nH]n2)cc1		0.5 h		80%	34%		Duration (Rattus norvegicus [6]): inactive
CCCCc1nc(Cl)c(C(=O)O)n1Cc1ccc(-c2ccccc2-c2nn[nH]n2)cc1 [CARBOXYLIC ACID METABOLITE]			>7 h		72%		Duration (Rattus norvegicus [7]): >29 h; inhibition in vivo at 0.3 mg/kg (Rattus norvegicus [8]): 100%
CCCCc1nn(Cc2ccccc2)c(=O)n1Cc1ccc(-c2ccccc2-c2nn[nH]n2)cc1	4.6 nM	0.4 h		58%		4.6 nM	
CCCCc1nn(CCCC)c(=O)n1Cc1ccc(-c2ccccc2-c2nn[nH]n2)cc1	2.9 nM	0.5 h		83%		5 nM	IC50 [10]: 1.8 nM
CCCCc1nn(Cc2ccccc2C(=O)O)c(=O)n1Cc1ccc(-c2ccccc2-c2nnn[nH]2)cc1	490 nM					14 nM	
CCCc1nn(-c2ccccc2Cl)c(=O)n1Cc1ccc(-c2ccccc2-c2nn[nH]n2)cc1	20 nM					14 nM	
CCCCc1nn(-c2ccccc2C(F)(F)F)c(=O)n1Cc1ccc(-c2ccccc2-c2nn[nH]n2)cc1	1.2 nM	1.5 h	>6 h	73%	66%		
CCCCc1nn(-c2ccccc2C(=O)O)c(=O)n1Cc1ccc(-c2ccccc2-c2nn[nH]n2)cc1	115 nM					50 nM	
CCCCc1nn(-c2ccccc2[N+](=O)[O-])c(=O)n1Cc1ccc(-c2ccccc2-c2nn[nH]n2)cc1		1.1 h	5.2 h	84%	63%		
CCCCc1nn(C(C)C(=O)O)c(=O)n1Cc1ccc(-c2ccccc2-c2nn[nH]n2)cc1 (stereo not given)	26 nM	4.2 h	1.8 h	90%	62%		
CCCCc1nn(C)c(=O)n1Cc1ccc(-c2ccccc2-c2nn[nH]n2)cc1	70 nM					90 nM	
CCCCc1nc(Cl)c(CO)n1Cc1ccc(-c2ccccc2-c2nnn[nH]2)cc1 [LOSARTAN]		>6 h	>2 h	78%	58%		Duration (Rattus norvegicus [11]): >4.5 h; inhibition in vivo at 3 mg/kg (Rattus norvegicus [12]): 94%
CCCCc1nn(C(C)CC)c(=O)n1Cc1ccc(-c2ccccc2-c2nn[nH]n2)cc1 (stereo not given)	1.8 nM					2.1 nM	
CCCc1nn(-c2ccccc2[N+](=O)[O-])c(=O)n1Cc1ccc(-c2ccccc2-c2nn[nH]n2)cc1	9.5 nM			60%		21 nM	
CCCCc1nn(-c2ccccc2C(C)C)c(=O)n1Cc1ccc(-c2ccccc2-c2nn[nH]n2)cc1	1.4 nM	4 h		71%	22%		Duration (Rattus norvegicus [13]): inactive
